Measured values from ChEMBL document CHEMBL1131401, “Potent and selective bicyclic lactam inhibitors of thrombin: Part 2: P1 modifications” (Bioorg Med Chem Lett, 1998).

Columns and labels:
[1] = molecular target: T1, Serine protease 1 (Homo sapiens, UniProt P07477); assay: In vitro inhibitory activity against trypsin at concentration 100 uM
[2] = molecular target: Prothrombin (Homo sapiens, UniProt P00734); assay: In vitro inhibitory activity against thrombin(FIIa)
[3] = test system: Rattus norvegicus; assay: In vivo mean occlusion time for the antithrombic activity in rat arterial thrombosis model; assay type: functional
[4] = molecular target: T1, Serine protease 1; assay: In vitro inhibitory activity against trypsin

T1 sequence (P07477 whole entry): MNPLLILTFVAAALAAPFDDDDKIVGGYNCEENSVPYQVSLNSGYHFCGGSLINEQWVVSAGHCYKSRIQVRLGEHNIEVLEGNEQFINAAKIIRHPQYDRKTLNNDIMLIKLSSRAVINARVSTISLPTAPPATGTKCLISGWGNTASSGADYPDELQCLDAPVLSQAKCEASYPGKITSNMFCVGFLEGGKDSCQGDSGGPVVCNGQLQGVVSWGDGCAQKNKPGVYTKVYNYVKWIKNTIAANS

| Structure (SMILES) | inhibition [1] [%] | IC50 [2] [nM] | MOT [3] [min] | IC50 [4] [nM] |
| --- | --- | --- | --- | --- |
| N=C(N)N1CCC([C@@H](NC(=O)[C@@H]2CC[C@H]3CN(C(=O)CCc4ccccc4)CC(=O)N32)C(=O)c2nccs2)CC1 | 31 | 150 | – | – |
| N=C(N)c1cccc(C[C@H](NC(=O)[C@@H]2CC[C@H]3CN(C(=O)CCc4ccccc4)CC(=O)N32)C(=O)c2nccs2)c1 | – | 77 | 18 | 7750 |
| N[C@H]1CC[C@H]([C@H](NC(=O)[C@@H]2CC[C@H]3CN(C(=O)CCc4ccccc4)CC(=O)N32)C(=O)c2nccs2)CC1 | – | 33 | 48 | 8990 |
| N=C(N)N1CCCC(C[C@@H](NC(=O)[C@@H]2CC[C@H]3CN(C(=O)CCc4ccccc4)CC(=O)N32)C(=O)c2nccs2)C1 (some centres undefined) | – | 137 | 27 | 31600 |
| N=C(N)NCCC[C@H](NC(=O)[C@@H]1CC[C@H]2CN(C(=O)CCc3ccccc3)CC(=O)N21)C(=O)c1nccs1 | – | – | 42 | < 1 |
| N=C(N)N1CCC([C@H](NC(=O)[C@@H]2CC[C@H]3CN(C(=O)CCc4ccccc4)CC(=O)N32)C(=O)c2nccs2)CC1 | – | 1 | 57 | 11900 |
| N=C(N)N1CCCC(C[C@H](NC(=O)[C@@H]2CC[C@H]3CN(C(=O)CCc4ccccc4)CC(=O)N32)C(=O)c2nccs2)C1 (some centres undefined) | – | 30 | >60 | 4360 |
